US7125964B2, “Purification of antigen-specific T cells” (Ortho-McNeil Pharmaceutical, Inc., priority 1996, dated 2006)
Read-outs that look alike come from different tables or passages of the source.

Legend:
2C T cells [1] = assay: Influence of temperature and CD8 on cell-bead complex formation, flow cytofluorometry; format: cell-based, mouse; conditions: for CD8 dependence of cell capture: purified 2C T cells versus CD8^− 2C T cells, room temperature, 3 hours
Experimental: We used flow cytofluorometry analysis to quantitate the influence of various parameters on cell-bead complex formation. Attachment of cells to beads was time dependent. […] Kinetics of adsorption were remarkably parallel for various peptide-MHC complexes. At 4° C., only a small percentage of cells was captured on beads, even after prolonged incubation. […] ([…], 1996).

2C T cells [2] = assay: Cell-bead complex formation, flow cytofluorometry, side scatter versus forward scatter dot plots; format: cell-based, mouse; conditions: 4 hours of incubation
2C T cells [3] = assay: Recovery of 2C T cells mixed with CD8^+ T cells from naive C57BL/6 mouse by adsorption on MHC class I-coated magnetic beads; format: cell-based; conditions: for % 2C T cell after enrichment: 0.03% 2C T cells before enrichment
Experimental: T cell precursor frequencies in a naive animal are typically low. Magnetic beads have been found suitable in other systems to enrich low frequency cell populations (Sawada et al., 1990; Kato and Radbruch, 1993). To assess whether MHC class I-coated magnetic beads could be used for T cell precursor enrichment, we mixed fluorescein-labeled 2C T cells with CD8^+ T cells purified from naive C57BL/6 mice. After incubation with MHC-coated magnetic beads in the presence of peptide, adsorbed cells were eluted and counted, and the percentage of 2C T cells was determined by flow cytofluorometry. In the experiment shown in FIG. 5, 2C T cells were undetectable at the initial frequency of 0.03%. Following adsorption using K^bm3-coated beads and dEV-8 peptide, a definite peak of green fluorescence was observed, displaying the same intensity as the original fluorescein-stained 2C T cell population. This peak represented 65.1% of the eluted cells. No peak was observed when a control peptide was used instead of dEV-8. […] In all cases, the non-fluorescent cells in the eluted population represented only a minor fraction of the initial cell population (˜0.2%).

[4] = target: 2C T cell receptor (2C TCR) on naive T cells purified from 2C TCR transgenic mice (mouse); assay: 2C T cells with MHC-coated magnetic beads, 4 h, flow cytofluorometry, forward versus side scatter
[5] = target: 2C T cell receptor (2C TCR) on naive T cells purified from 2C TCR transgenic mice (mouse); assay: 2C T cells mixed with CD8+ T cells of naive B6 mouse (0.03%), adsorption on MHC class I-coated magnetic beads, 2 experiments
2C TCR = conditions: association constant, cited from earlier work; for affinity of peptide-MHC complex for the 2C TCR: recently determined; for 2C TCR affinity for L^d-peptide: Sykulev et al, 1994 a, b
2C T cells [6] = assay: Capture of 2C T cells on MHC-coated magnetic beads, microscopic examination; format: cell-based, mouse; conditions: readout not stated
L^d = target: T1, L^d (Mus musculus, UniProt P01897); conditions: association constant; cited from earlier work
T1 sequence (P01897 25-298 limits assumed): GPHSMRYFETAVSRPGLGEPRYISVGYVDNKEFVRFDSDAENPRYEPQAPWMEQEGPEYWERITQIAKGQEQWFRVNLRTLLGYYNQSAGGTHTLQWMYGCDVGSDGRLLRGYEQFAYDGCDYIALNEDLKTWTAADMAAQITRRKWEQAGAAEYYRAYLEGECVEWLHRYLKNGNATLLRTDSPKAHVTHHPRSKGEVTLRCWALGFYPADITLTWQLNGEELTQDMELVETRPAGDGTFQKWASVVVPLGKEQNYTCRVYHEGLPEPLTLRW
T1 sequence (P01887 21-119 partner): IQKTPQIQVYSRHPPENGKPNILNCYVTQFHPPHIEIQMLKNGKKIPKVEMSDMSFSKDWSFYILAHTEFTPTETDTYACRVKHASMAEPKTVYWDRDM

[7] = target: 2C T cell receptor (2C TCR) on naive T cells purified from 2C TCR transgenic mice (mouse); assay: fluorescein-labeled 2C T cells with phycoerythrin-labeled L^d-coated beads, flow cytofluorometry, green versus red dot plots; laid by the filing to non-specific adsorption of cell debris
[8] = target: 2C T cell receptor (2C TCR) on naive T cells purified from 2C TCR transgenic mice (mouse); assay: 2C T cells with MHC-coated magnetic beads, flow cytofluorometry, forward versus side scatter
[9] = target: 2C T cell receptor (2C TCR) on naive T cells purified from 2C TCR transgenic mice (mouse); assay: 2C T cells mixed with CD8+ T cells of naive B6 mouse (0.03%), adsorption on MHC class I-coated magnetic beads, 3 experiments
[10] = target: 2C T cell receptor (2C TCR) on naive T cells purified from 2C TCR transgenic mice (mouse); assay: fluorescein-labeled 2C T cells with phycoerythrin-labeled L^d-coated beads, flow cytofluorometry, green versus red dot plots
[11] = target: 2C T cell receptor (2C TCR) on naive T cells purified from 2C TCR transgenic mice (mouse); assay: 2C T cells with MHC-coated magnetic beads, flow cytofluorometry, temperature dependence
EL4 cells = format: cell-based, mouse
2C T cells [12] = assay: Cell-bead complex formation, flow cytofluorometry, green versus red fluorescence dot plots; format: cell-based, mouse; conditions: L^d-coated beads, 20 μM peptide

## EQYKFYSV [dEV-8, ID; NO.: 5]
2C T cells [1]
  CD8 dependence of cell capture: most CD8-dependent
2C T cells [2]; K^bm3-coated beads
  percentage of cells adsorbed to beads (CO/CO+CE): 63.8%
2C T cells [3]; K^bm3-coated beads
  2C T cell enrichment: 1697 ± 473 fold
  % 2C T cell after enrichment: 50.9 ± 14.2%

## K^b-SIYR complex on avidin-coated magnetic beads (from UniProt P01887 21-119; P01901 22-369) (peptide-MHC)
[4]
  % of cells adsorbed to beads: 75.7%
[5]
  2C T cell recovery: 56.8%

## K^b-SIYR: complex of K^b with peptide SIYR
2C TCR
  affinity of peptide-MHC complex for the 2C TCR: 31000 M⁻¹
2C T cells [6]
  capture of 2C T cells observed or not: consistently observed capture

## K^b-dEV-8: complex of K^b with peptide dEV-8
2C TCR
  affinity of peptide-MHC complex for the 2C TCR: 12000 M⁻¹
2C T cells [6]
  capture of 2C T cells observed or not: not

## K^bm3-dEV-8 complex on avidin-coated magnetic beads (from UniProt P01887 21-119) (peptide-MHC)
[4]
  % of cells adsorbed to beads: 63.8%
[5]
  2C T cell recovery: 47.7%

## LSPFPFDL [p2Ca]
2C TCR
  2C TCR affinity for L^d-peptide: 2e+06 M⁻¹
2C T cells [1]
  CD8 dependence of cell capture: most CD8-dependent
2C T cells [2]; L^d-coated beads
  percentage of cells adsorbed to beads (CO/CO+CE): 78.9%
L^d
  Peptide affinity for L^d: 4e+06 M⁻¹

## L^d-LCMV complex on avidin-coated magnetic beads (from UniProt P01887 21-119; P01897 25-362) (peptide-MHC)
[7]
  % red and green colored events: 2.2%
[8]
  % of events in the complex region: 2.6%

## L^d-QL9 complex on avidin-coated magnetic beads (from UniProt P01887 21-119; P01897 25-362) (peptide-MHC)
[4]
  % of cells adsorbed to beads: 91%
[9]
  2C T cell recovery: 90%
[10]
  % of cells complexed to beads: > 85%

## L^d-QL9: complex of MHC class I molecule L^d with peptide QL9
2C T cells [1]
  CD8 dependence of cell capture: largely CD8 independent

## L^d-SL9 complex on avidin-coated magnetic beads (from UniProt P01887 21-119; P01897 25-362) (peptide-MHC)
[10]
  % of cells complexed to beads: > 85%

## L^d-SL9: complex of L^d with peptide SL9
2C TCR
  affinity of peptide-MHC complex for the 2C TCR: 14000 M⁻¹

## L^d-p2Ca complex on avidin-coated magnetic beads (from UniProt P01887 21-119; P01897 25-362) (peptide-MHC)
[11]
  attachment level at 37° C. against the value at room temperature: 25%
[4]
  % of cells adsorbed to beads: 78.9%
[10]
  % of cells complexed to beads: > 85%

## L^d-p2Ca-A3: complex of L^d with peptide p2Ca-A3
2C TCR
  affinity of peptide-MHC complex for the 2C TCR: 20000 M⁻¹
2C T cells [6]
  capture of 2C T cells observed or not: not

## L^d-p2Ca: complex of L^d with peptide p2Ca
2C T cells [1]; 37° C. versus room temperature
  attachment levels at 37° C. relative to values measured at room temperature: about 25%
2C T cells [1]
  CD8 dependence of cell capture: exhibited CD8 dependence

## QLSPFPFDL [QL9]
2C TCR
  2C TCR affinity for L^d-peptide: 10^7 M^−1
2C T cells [1]
  CD8 dependence of cell capture: CD8 independent
2C T cells [2]; L^d-coated beads
  percentage of cells adsorbed to beads (CO/CO+CE): 91.0%
L^d
  Peptide affinity for L^d: 2e+08 M⁻¹
2C T cells [3]; L^d-coated beads
  2C T cell enrichment: 828 ± 230 fold
  % 2C T cell after enrichment: 24.8 ± 6.9%

## RGYVYQGL [VSV-8]
EL4 cells
  CTL activity of cells captured and cultured with the same peptide: displayed a CTL activity specific for VSV-8
  CTL precursors for the other peptide in captured cells: no detectable anti-OVA-8 CTL precursors

## RPQASGVYM [LCMV]
2C T cells [12]
  percentage of cells complexed to beads (RG/G+RG): 2.2%

## SIINFEKL [OVA-8, ID; NO.: 9]
EL4 cells; K^b-coated beads, naive C57BL/6 CD8^+ T cells, tested at day 18, peptides 1 μM
  CTL activity of cells captured and cultured with the same peptide: displayed a CTL activity specific for OVA-8 peptide
EL4 cells; reverse combination: captured with one peptide, activated in culture with the other
  CTL precursors for the other peptide in captured cells: no detectable anti-VSV-8 CTL precursors

## SIYRYYGL
2C T cells [1]
  CD8 dependence of cell capture: CD8 independent
2C T cells [2]; K^b-coated beads
  percentage of cells adsorbed to beads (CO/CO+CE): 75.7%
2C T cells [3]; K^b-coated beads
  2C T cell enrichment: 1588 ± 71 fold
  % 2C T cell after enrichment: 47.6 ± 2.1%

## SPFPFDLLL [SL9, ID; NO.: 3]
2C TCR
  2C TCR affinity for L^d-peptide: 14000 M⁻¹
L^d
  Peptide affinity for L^d: 4e+07 M⁻¹

## YPHFMPTNL [MCMV, ID; NO.: 8]
2C TCR
  2C TCR affinity for L^d-peptide: <10^3 M^−1
L^d
  Peptide affinity for L^d: 2e+09 M⁻¹

B1: K^b-E1: non-2C reactive complex of K^b with peptide E1 (protein)
MHC heavy: GPHSLRYFVTAVSRPGLGEPRYMEVGYVDDTEFVRFDSDAENPRYEPRARWMEQEGPEYWERETQKAKGNEQSFRVDLRTLLGYYNQSKGGSHTIQVISGCEVGSDGRLLRGYQQYAYDGCDYIALNEDLKTWTAADMAALITKHKWEQAGEAERLRAYLEGTCVEWLRRYLKNGNATLLRTDSPKAHVTHHSRPEDKVTLRCWALGFYPADITLTWQLNGEELIQDMELVETRPAGDGTFQKWASVVVPLGKEQYYTCHVYHQGLPEPLTLRWEPPPSTVSNMATVAVLVVLGAAIVTGAVVAFVMKMRRRNTGGKGGDYALAPGSQTSDLSLPDCKVMVHDPHSLA
b2m: T1 sequence (P01887 21-119 partner)
peptide: EIINFEKL
2C T cells [2]; K^b-coated beads
  percentage of cells adsorbed to beads (CO/CO+CE): 0.2%
